Columns and labels:
[1] = molecular target: T1, [3H]-NMS-occupied muscarinic hM1 subtype (Homo sapiens, UniProt P11229); assay: biochemical
T1 sequence (P11229 1-460): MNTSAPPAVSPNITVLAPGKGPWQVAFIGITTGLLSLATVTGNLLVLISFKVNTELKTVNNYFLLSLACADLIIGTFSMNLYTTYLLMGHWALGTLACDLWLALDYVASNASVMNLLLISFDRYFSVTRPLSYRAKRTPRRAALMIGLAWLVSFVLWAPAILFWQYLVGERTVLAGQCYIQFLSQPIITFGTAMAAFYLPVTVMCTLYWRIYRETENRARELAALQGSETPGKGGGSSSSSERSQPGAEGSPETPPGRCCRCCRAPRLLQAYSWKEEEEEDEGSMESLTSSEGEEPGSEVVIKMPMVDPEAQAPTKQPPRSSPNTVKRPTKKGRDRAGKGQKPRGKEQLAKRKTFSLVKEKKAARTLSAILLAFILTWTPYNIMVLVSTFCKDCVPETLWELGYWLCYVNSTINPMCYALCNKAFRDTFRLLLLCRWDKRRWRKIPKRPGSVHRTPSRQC
Protocol: (§1) All tested compounds were purchased from Merck KGaA (Darmstadt, Germany). The radioligand binding experiments were performed with membranes from Chinese Hamster Ovary (CHO) cells stably transfected with the five cloned human muscarinic receptor subtypes (hM1-5). Membrane fractions were prepared according to the protocol, which have been previously described; membranes were stored at −80 °C until use. Nonspecific binding was defined by the radioactivity bound in the presence of 10 µM atropine.
(§2) Off-rate assays were performed as described elsewhere to estimate the affinity of the ligands for the [^3H]-NMS-occupied receptor (log Kocc). Briefly, a high concentration of membranes (about 0.1 mg/mL) was incubated with a high concentration of [^3H]-NMS (2 nM) for 60 min at room temperature (mix membrane). Next, 100 µL aliquots were distributed into polypropylene tubes that were empty or in a final volume of 1 mL binding buffer with 1 µM atropine alone and in the presence of a range of concentrations of tested compound (1 nM–0.1 mM).
(§3) The effect on the radioligand dissociation of each tested ligand was determined at 0 min and at one time point, which was chosen to be ca 2.5 dissociation half-lives of [^3H]-NMS alone from each subtype receptors. Later (80 min for hM1, 20 min for hM2 and 70 min for hM5), the samples were filtered and counted as previously reported. Non specific binding was measured as previously reported.
(§4) All the results are expressed as means ± SEM obtained from 3-4 independent experiments each one performed in duplicate.

[2] = molecular target: T2, [3H]-NMS-occupied muscarinic hM2 subtype (Homo sapiens, UniProt P08172); assay: One point kinetic (off-rate) assay of [3H]-NMS dissociation; format: binding
T2 construct: expressed in transfected cells; host or cells: CHO cells, stably transfected; membrane fractions
T2 sequence (P08172 1-466): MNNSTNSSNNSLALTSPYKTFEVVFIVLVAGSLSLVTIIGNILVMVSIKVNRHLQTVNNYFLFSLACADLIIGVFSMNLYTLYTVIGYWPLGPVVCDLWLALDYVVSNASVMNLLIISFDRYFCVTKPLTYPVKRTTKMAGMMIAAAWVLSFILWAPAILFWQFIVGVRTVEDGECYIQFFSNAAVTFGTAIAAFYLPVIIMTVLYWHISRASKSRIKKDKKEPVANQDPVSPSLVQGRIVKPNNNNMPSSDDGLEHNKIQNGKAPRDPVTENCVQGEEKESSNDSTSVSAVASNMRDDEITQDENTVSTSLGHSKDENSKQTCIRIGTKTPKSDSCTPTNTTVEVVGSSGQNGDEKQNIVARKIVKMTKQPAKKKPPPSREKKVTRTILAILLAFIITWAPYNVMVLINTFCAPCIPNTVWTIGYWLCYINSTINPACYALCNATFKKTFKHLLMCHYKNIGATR
Protocol: as §1, §2, §3, §4

[3] = molecular target: T3, [3H]-NMS-occupied muscarinic hM5 subtype (Homo sapiens, UniProt P08912); assay: as above; format: binding; conditions: read-out: log Kocc hM5 (converted)
T3 construct: expressed in transfected cells; host or cells: CHO cells, stably transfected; membrane fractions
T3 sequence (P08912 1-532): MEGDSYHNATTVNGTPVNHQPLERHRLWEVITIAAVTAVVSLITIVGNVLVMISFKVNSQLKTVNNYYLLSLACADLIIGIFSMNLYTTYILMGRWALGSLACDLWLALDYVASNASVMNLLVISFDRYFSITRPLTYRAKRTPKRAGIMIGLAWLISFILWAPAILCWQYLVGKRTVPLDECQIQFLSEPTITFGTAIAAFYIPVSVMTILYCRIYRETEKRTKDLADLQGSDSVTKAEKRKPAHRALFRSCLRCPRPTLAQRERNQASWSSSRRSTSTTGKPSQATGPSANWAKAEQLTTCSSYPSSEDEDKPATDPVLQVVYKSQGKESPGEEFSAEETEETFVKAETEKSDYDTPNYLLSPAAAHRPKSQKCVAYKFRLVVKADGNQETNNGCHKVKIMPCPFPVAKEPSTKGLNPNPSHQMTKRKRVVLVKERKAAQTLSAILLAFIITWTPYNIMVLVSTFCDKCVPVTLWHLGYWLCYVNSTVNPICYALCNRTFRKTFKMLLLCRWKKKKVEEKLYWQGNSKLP
Protocol: as §1, §2, §3
Data from one-point kinetic experiments were analyzed in order to obtain estimates of the affinity of an allosteric ligand for the [^3H]-NMS occupied receptor (log Kocc) in a single step, using an equation introduced in GraphPad Prism 5.02 [33, 34].
as §4

hM2 muscarinic receptor = molecular target: T4, hM2 muscarinic receptor (Homo sapiens, UniProt P08172); assay: Equilibrium inhibition binding with [3H]-NMS, CHO cell membranes; conditions: [3H]-NMS 0.2 nM, mean ± SEM of 3-4 experiments, read-out: pKi hM2 (converted)
T4 construct: expressed in transfected cells; host or cells: CHO cells, stably transfected; membrane fractions
T4 sequence (P08172 1-466): T2 sequence (P08172 1-466)
Protocol: as §1
(§5) Aliquots of membranes (25–70 µg/mL) were added and incubated for 2 h at room temperature, filtered through UniFilter GF/B plates (PerkinElmer Life and Analytical Science, Monza, Italy) using a FilterMate cell harvester (PerkinElmer Life and Analytical Science, Monza, Italy). The filters were washed several times with ice-cold MilliQ water. Then, the plates were counted in a β-counter (TopCount NXT microplate scintillation counter, PerkinElmer Life and Analytical Science, Monza, Italy).
(§6) Data points from radioligand inhibition binding curve were fitted to models using nonlinear regression equation to determine inhibitor potency (IC50) estimates, which were then converted to Ki values as appropriate.
as §4

hM1 muscarinic receptor = molecular target: T5, hM1 muscarinic receptor (Homo sapiens, UniProt P11229); assay: as above; conditions: [3H]-NMS 0.2 nM, mean ± SEM of 3-4 experiments, read-out: pKi hM1 (converted)
T5 construct: expressed in transfected cells; host or cells: CHO cells, stably transfected; membrane fractions
T5 sequence (P11229 1-460): T1 sequence (P11229 1-460)
Protocol: as §1, §5, §6, §4

hM4 muscarinic receptor = molecular target: T6, hM4 muscarinic receptor (Homo sapiens, UniProt P08173); assay: as above; conditions: [3H]-NMS 0.2 nM, CHO membranes, mean ± SEM of 3-4 experiments; read-out: pKi hM4 (converted)
T6 construct: expressed in transfected cells; host or cells: CHO cells, stably transfected; membrane fractions
T6 sequence (P08173 1-479): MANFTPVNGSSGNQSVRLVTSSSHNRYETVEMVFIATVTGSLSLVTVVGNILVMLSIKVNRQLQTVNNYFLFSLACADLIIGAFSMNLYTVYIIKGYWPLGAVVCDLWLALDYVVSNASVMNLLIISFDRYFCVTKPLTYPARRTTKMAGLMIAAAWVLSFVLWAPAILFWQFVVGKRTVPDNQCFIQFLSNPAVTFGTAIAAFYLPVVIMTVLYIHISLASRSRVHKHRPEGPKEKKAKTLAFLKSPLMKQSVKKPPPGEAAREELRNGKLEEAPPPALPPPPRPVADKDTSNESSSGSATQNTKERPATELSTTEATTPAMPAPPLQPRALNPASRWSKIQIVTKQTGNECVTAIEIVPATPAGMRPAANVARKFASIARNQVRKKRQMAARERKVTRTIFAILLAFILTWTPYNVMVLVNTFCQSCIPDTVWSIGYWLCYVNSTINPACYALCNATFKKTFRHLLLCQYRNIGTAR
Protocol: as §1, §5, §6, §4

hM3 muscarinic receptor = molecular target: T7, hM3 muscarinic receptor (Homo sapiens, UniProt P20309); assay: as above; conditions: [3H]-NMS 0.2 nM, mean ± SEM of 3-4 experiments, read-out: pKi hM3 (converted)
T7 construct: expressed in transfected cells; host or cells: CHO cells, stably transfected; membrane fractions
T7 sequence (P20309 whole entry): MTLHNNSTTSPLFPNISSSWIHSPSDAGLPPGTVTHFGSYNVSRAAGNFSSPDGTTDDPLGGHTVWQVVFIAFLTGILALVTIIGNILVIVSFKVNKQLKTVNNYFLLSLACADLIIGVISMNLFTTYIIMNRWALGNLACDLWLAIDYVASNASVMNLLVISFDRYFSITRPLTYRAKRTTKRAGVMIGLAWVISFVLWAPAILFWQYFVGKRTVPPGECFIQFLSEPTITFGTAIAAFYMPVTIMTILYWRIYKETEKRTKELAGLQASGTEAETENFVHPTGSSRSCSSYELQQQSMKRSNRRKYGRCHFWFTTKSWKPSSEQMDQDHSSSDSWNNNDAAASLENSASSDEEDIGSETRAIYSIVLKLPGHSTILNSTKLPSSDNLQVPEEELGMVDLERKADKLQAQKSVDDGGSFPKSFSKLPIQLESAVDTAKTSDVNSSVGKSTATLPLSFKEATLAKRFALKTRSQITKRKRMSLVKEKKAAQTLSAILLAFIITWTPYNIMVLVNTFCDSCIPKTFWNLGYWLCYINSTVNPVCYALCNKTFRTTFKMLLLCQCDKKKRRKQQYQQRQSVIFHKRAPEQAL
Protocol: as §1, §5, §6, §4

hM5 muscarinic receptor = molecular target: T8, hM5 muscarinic receptor (Homo sapiens, UniProt P08912); assay: as above; conditions: [3H]-NMS 0.2 nM, CHO membranes, mean ± SEM of 3-4 experiments; read-out: pKi hM5 (converted)
T8 construct: expressed in transfected cells; host or cells: CHO cells, stably transfected; membrane fractions
T8 sequence (P08912 1-532): T3 sequence (P08912 1-532)
Protocol: as §1, §5, §6, §4

[4] = molecular target: five human muscarinic receptors subtypes (hM1–hM5); assay: Equilibrium binding, summary statements over the five subtypes
Protocol: as §1, §5, §6, §4

C[N+](C)(CCCCCC[N+](C)(C)CCCN1C(=O)c2ccccc2C1=O)CCCN1C(=O)c2ccccc2C1=O [W84]
Kd [1]: 1.62 µM
selectivity ratio hM2/hM1 ([2]; from log Kocc values): 4.6
selectivity ratio hM2/hM5 ([2]; from log Kocc values): 52.5
Kd ([2]; read-out: Log Kocc hM2 (converted)): 0.288 µM
Kd [3]: 18.2 µM
Ki (hM2 muscarinic receptor): 6.17 µM
Ki (hM1 muscarinic receptor): 0.891 µM
Ki (hM4 muscarinic receptor): 5.01 µM
Ki (hM3 muscarinic receptor): 5.5 µM
Ki (hM5 muscarinic receptor): 9.12 µM

[H]/N=C(\N/C(=N/[H])NCCCCCCNC(=N)NC(=N)Nc1ccc(Cl)cc1)Nc1ccc(Cl)cc1 [chlorhexidine]
Kd [1]: 81.3 µM
pKi values (muscarinic subtypes overall) [4]: around 6
Kd [3]: 186 µM
Ki (hM1 muscarinic receptor): 0.501 µM
Ki (hM4 muscarinic receptor): 1.62 µM
Ki (hM3 muscarinic receptor): 2.14 µM
Ki (hM5 muscarinic receptor): 2.24 µM

N=C(N)c1ccc(OCCCCCOc2ccc(C(=N)N)cc2)cc1 [pentamidine]
Kd [3]: 182 µM
Ki (hM4 muscarinic receptor): 1.32 µM
Ki (hM5 muscarinic receptor): 1.74 µM

Reference: PMC7503225, “Repositioning Dequalinium as Potent Muscarinic Allosteric Ligand by Combining Virtual Screening Campaigns and Experimental Binding Assays” (International Journal of Molecular Sciences, 2020)
